Measured values reported in patent publication US20140179688A1, “PLOD-2 Modulators and Their Use in the Treatment of Skin” (AVON PRODUCTS, INC., priority 2012, published 2014).

System: PLOD-2
Test: PLOD-2 expression by qRT-PCR versus other anti-aging actives (Example 5)
Type: cell-based, Human
Conditions: for induction of a significant level of PLOD-2 in skin cells: concentrations as in Table 5; for Significant Increases in PLOD-2 Expression: 48 hours, fibroblasts, relative to vehicle
Method: Normal Human Dermal Fibroblasts were Grown in DMEM (Mediatech; cat. #: 15-013-CV) containing 10% Fetal Bovine Serum (Perbio; cat. #: SH30070.03), Penicillin/Streptomycin (Mediatech, Cat #30-001-C1), L-Glutamine (Mediatech; cat. #: 25-005-CI) at 37° C. and 10% CO2. […] RNA was isolated using RNeasy RNA extraction kit (74106) from Qiagen. RNA concentrations were determined using NanoDrop Spectrophotometer ND 1000 ([…]).
RT reactions were conducted in a total volume of 20 μl using the High Capacity cDNA kit from AB (PN 4368814). The RT mixture was prepared to contain 2 μl 10× TaqMan RT buffer, 1.2 μl dNTP mix ([…]), 1.0 μl 10× Random Hexamer, 1 μl RNase Inhibitor, 1 μl MultiScribe Reverse Transcriptase ([…]), 100 ng of RNA, and RNase-free water to make up the final volume of 20 μl. The reaction was incubated at 25° C. for 10 min, 45° C. for 45 min, and then 95° C. for 5 min in a BIORAD MY CYCLER.
QPCR was carried out using Applied Biosystems Universal PCR Master Mix (PN 4369016). The mixture contained 10 μl of Taqman Universal PCR mix, 1 μl of primer and probe mix, 2 μl of RT product, and 7 μl of deionized water. All probes, Taqman assays were, were purchased from Applied Biosystems, Hs01118190 ml for PLOD-2, and human GAPDH (PN 4352934). The temperature profiles for qPCR were 50° C. for 2 min, and 95° C. for 10 min for 1 cycle, then at 95° C. for 15 sec, and 60° C. for 1 min for 40 cycles carried out in Stratagene Mx 3005P qPCR machine.
RNA isolated from cells were analyzed by qRT-PCR for expression levels of PLOD-2, using GAPDH as an internal control.

Compound	induction of a significant level of PLOD-2 in skin cells	Significant Increases in PLOD-2 Expression (5 μM)	Significant Increases in PLOD-2 Expression (10 μM)	further results
COc1ccc(Cc2nc(=O)c(CCC(=O)N3CCC(C)CC3)n[nH]2)cc1OC [ALB-H09784893]	significantly stimulate	–	–	–
N#Cc1cccc(CN2CCNC(=O)CC2c2nccs2)c1 (centres unmarked) [ALB-H16063163]	significantly stimulate	–	–	–
COC1=C(OC)C(=O)C(C/C=C(\C)CC/C=C(\C)CC/C=C(\C)CC/C=C(\C)CC/C=C(\C)CC/C=C(\C)CC/C=C(\C)CC/C=C(\C)CC/C=C(\C)CCC=C(C)C)=C(C)C1=O [Coenzyme Q10]	–	Yes (11%)	Yes (24%)	–
O=C(O)CO [Glycolic Acid (AHA), Glycolic Acid]	did not induce a significant level of PLOD-2	–	–	Significant Increases in PLOD-2 Expression (0.05%): No; Significant Increases in PLOD-2 Expression (0.10%): No
NC(=O)c1cccnc1 [Niacinamide]	did not induce a significant level of PLOD-2	–	–	Significant Increases in PLOD-2 Expression (0.05%): No; Significant Increases in PLOD-2 Expression (0.10%): No
Oc1ccc(C=Cc2cc(O)cc(O)c2)cc1 [Resveratrol]	did not induce a significant level of PLOD-2	No	No	–
CC1=C(/C=C/C(C)=C/C=C/C(C)=C/CO)C(C)(C)CCC1 [Retinol]	did not induce a significant level of PLOD-2	No	No	–
Hyaluronic Acid	did not induce a significant level of PLOD-2	–	–	Significant Increases in PLOD-2 Expression (0.001%): No; Significant Increases in PLOD-2 Expression (0.005%): No
N-Acetyl-Tyrosinamide	significantly stimulate	–	–	–
